Test results taken from ChEMBL document CHEMBL1153850, “Novel derivatives of 6-mercaptopurine: synthesis, characterization and antiproliferative activities of S-allylthio-mercaptopurines” (Eur J Med Chem, 2009).
Calls of active or inactive are those of the source. No cut-off for these calls is given here.

What was measured:
[1] = tested on: HL-60; assay: Antiproliferative activity against human HL60 cells assessed as cell viability after 16 hrs by [methyl-3H]thymidine incorporation based XTT assay relative to control; type: functional
[2] = tested on: HeLa; assay: Antiproliferative activity against human HeLa cells assessed as cell viability after 16 hrs by [methyl-3H]thymidine incorporation based XTT assay relative to control; type: functional
[3] = tested on: U-937; assay: Antiproliferative activity against human U937 cells assessed as [methyl-3H]thymidine incorporation after 16 hrs by XTT assay; type: functional, cell-based; details: U-937, 16 h
[4] = tested on: NCI-N87; assay: Antiproliferative activity against human NCI-N87 cells at 150 uM after 16 hrs by XTT assay; type: functional
[5] = tested on: Jurkat; assay: Antiproliferative activity against human Jurkat cells assessed as [methyl-3H]thymidine incorporation after 16 hrs by XTT assay; type: functional, cell-based
[6] = tested on: MOLT-4; assay: Antiproliferative activity against human MOLT4 cells assessed as [methyl-3H]thymidine incorporation after 16 hrs by XTT assay; type: functional, cell-based; details: MOLT-4, 16 h
[7] = tested on: Daudi; assay: Antiproliferative activity against human Daudi cells assessed as [methyl-3H]thymidine incorporation after 16 hrs by XTT assay; type: functional, cell-based
[8] = Induction of apoptosis in human B-CLL cells after 48 hrs by FACS analysis; type: functional, cell-based
[9] = tested on: NCI-N87; assay: Antiproliferative activity against human NCI-N87 cells assessed as [methyl-3H]thymidine incorporation after 16 hrs by XTT assay; type: functional, cell-based; details: for IC50: NCI-N87, 16 h
[10] = tested on: HT-29; assay: Antiproliferative activity against multidrug-resistant human HT-29 cells assessed as [methyl-3H]thymidine incorporation after 16 hrs by XTT assay; type: functional, cell-based; details: HT-29, 16 h
[11] = tested on: HL-60; assay: Antiproliferative activity against human HL60 cells assessed as [methyl-3H]thymidine incorporation after 16 hrs by XTT assay; type: functional, cell-based; details: HL-60, 16 h
[12] = tested on: HeLa; assay: Antiproliferative activity against human HeLa cells assessed as [methyl-3H]thymidine incorporation after 16 hrs by XTT assay; type: functional, cell-based
[13] = tested on: NCI-N87; assay: Antiproliferative activity against human NCI-N87 cells assessed as residual proliferation at 100 uM after 16 hrs by XTT assay; type: functional
[14] = tested on: Daudi; assay: Antiproliferative activity against human Daudi cells assessed as residual proliferation at 50 uM after 16 hrs by XTT assay; type: functional
[15] = tested on: NCI-N87; assay: Antiproliferative activity against human NCI-N87 cells assessed as residual proliferation at 50 uM after 16 hrs by XTT assay; type: functional
[16] = tested on: Daudi; assay: Antiproliferative activity against human Daudi cells assessed as residual proliferation at 100 uM after 16 hrs by XTT assay; type: functional
[17] = tested on: NCI-N87; assay: Antiproliferative activity against human NCI-N87 at 100 uM assessed as [methyl-3H]thymidine incorporation after 16 hrs by XTT assay relative to control; type: functional, cell-based
[18] = Induction of apoptosis in human B-CLL cells assessed as increase in apoptotic cells at 50 uM after 16 hrs by FACS analysis; type: functional
[19] = Antiproliferative activity against human B-CLL cells assessed as cell viability after 16 hrs by trypan blue exclusion assay; type: functional, cell-based
[20] = tested on: HeLa; assay: Antiproliferative activity against human HeLa cells at 110 uM assessed as [methyl-3H]thymidine incorporation after 16 hrs by XTT assay relative to control; type: functional, cell-based
[21] = tested on: Daudi; assay: Antiproliferative activity against human Daudi cells at <=20 uM assessed as [methyl-3H]thymidine incorporation after 16 hrs by XTT assay relative to control; type: functional
[22] = Induction of apoptosis in human B-CLL cells assessed as increase in apoptotic cells at 100 uM after 16 hrs by FACS analysis; type: functional
[23] = tested on: HT-29; assay: Cytotoxicity against multidrug-resistant human HT-29 cells assessed as inhibition of epithelial-like growth at 150 uM after 16 hrs using propidium iodide staining by phase-contrast microscopy; type: functional, cell-based
[24] = tested on: HeLa; assay: Cytotoxicity against human HeLa cells assessed as reduced cell viability at 200 uM by trypan blue exclusion assay relative to control; type: functional
[25] = tested on: PBMC; assay: Inhibition of T cell mitogen-induced blastogenesis in human PBMC after 4 days; type: functional, cell-based; details: 96 h
[26] = Induction of apoptosis in human B-CLL cells assessed as increase in apoptotic cells at 150 uM after 16 hrs by FACS analysis; type: functional
[27] = tested on: HT-29; assay: Cytotoxicity against multidrug-resistant human HT-29 cells assessed as reduced cell viability at 150 uM by trypan blue exclusion assay relative to control; type: functional
[28] = tested on: Daudi; assay: Antiproliferative activity against human Daudi cells at 50 uM after 16 hrs by XTT assay; type: functional
[29] = tested on: Daudi; assay: Cytotoxicity against human Daudi cells assessed as residual cell viability at 50 uM after 16 hrs by trypan blue exclusion assay relative to control; type: functional
[30] = tested on: HeLa; assay: Cytotoxicity against human HeLa cells assessed as reduced cell viability at 150 uM by trypan blue exclusion assay relative to control; type: functional
[31] = tested on: HT-29; assay: Induction of multidrug-resistant human HT-29 cell death at 150 uM after 16 hrs using propidium iodide staining by fluorescence microscopy; type: functional, cell-based
[32] = Cytotoxicity against human B-CLL cells assessed as residual cell viability at 150 uM after 16 hrs by trypan blue exclusion assay relative to control; type: functional

| SMILES | IC50 [3] [µM] | Activity [4] | IC50 [5] [µM] | IC50 [6] [µM] | IC50 [7] [µM] | IC50 [9] [µM] | IC50 [10] [µM] | IC50 [11] [µM] | IC50 [12] [µM] | Activity [15] [%] | Activity [12] | Activity [17] | Activity [18] [%] | Activity [7] | Activity [20] | Activity [21] | Activity [9] | Activity [22] [%] | Activity [23] | IC50 [25] [µM] | further results |
| --- | --- | --- | --- | --- | --- | --- | --- | --- | --- | --- | --- | --- | --- | --- | --- | --- | --- | --- | --- | --- | --- |
| OC[C@@H]1O[C@H](n2cnc3c(S)ncnc32)[C@@H](O)[C@H]1O | > 200 | 75% | 99 | 24.8 | – | – | – | – | – | – | – | – | – | – | – | – | – | – | – | – | Activity [1]: inactive; Activity [2]: inactive |
| C=CCS[S+]([O-])CC=C (stereo not drawn) [ALLICIN] | 19.7 | – | – | – | 35.3 | 16.8 | 83.8 | 5.5 | – | – | – | – | – | – | – | – | – | – | – | – | IC50 [8]: 20 µM |
| C=CCSSc1ncnc2c1ncn2[C@H]1O[C@@H](CO)[C@H](O)[C@@H]1O | 113 | Active | 69.1 | 16.9 | 70.8 | 120 | > 200 | 86.1 | > 200 | 70 | – | – | – | – | – | – | – | – | – | – | Activity [13]: 55%; Activity [14]: 60%; Activity [16]: 25% |
| Sc1ncnc2nc[nH]c12 [MERCAPTOPURINE ANHYDROUS] | > 200 | 80% | > 200 | 50.5 | > 200 | – | > 200 | – | > 200 | – | Dose-dependent effect | inactive | 9.78 | Dose-dependent effect | inactive | inactive | Dose-dependent effect | 9.7 | inactive | 0.149 | IC50 [19]: > 200 µM; Activity [24]: 75%; Activity [26]: 8.68% |
| Cn1cnc([N+](=O)[O-])c1Sc1ncnc2[nH]cnc12 [AZATHIOPRINE] | – | – | – | – | – | – | – | – | – | – | – | – | – | – | – | – | – | – | – | 0.23 | – |
| C=CCSSc1ncnc2nc[nH]c12 | 46.7 | – | 54.7 | 8.9 | 38.3 | 70.5 | – | 42 | – | 50 | Dose-dependent effect | Active | 37.88 | Dose-dependent effect | Active | 50% | Dose-dependent effect | 95.26 | Active | – | Activity [27]: 40%; Activity [28]: 15%; Activity [29]: 20%; Activity [30]: 65%; Activity [31]: Active; Activity [32]: 75% |
